Measurements published in ChEMBL document CHEMBL5584353, “Design, Synthesis, and Biological Evaluation of Potent EZH2/LSD1 Dual Inhibitors for Prostate Cancer” (J Med Chem, 2024).
Activity calls are given as the source filed them. The rule behind the calls is not given here.

How the values were obtained:
[1] = system: MV4-11; test: Antiproliferative activity against human MV4-11 cells assessed as inhibition of cell growth incubated for 6 to 7 days by MTS assay; assay type: functional, cell-based; conditions: time 6-7 day
[2] = system: CWR22R; test: Synergistic antiproliferative activity against human 22Rv1 cells assessed as inhibition of cell growth at 6.25 to 100 uM incubated for 6 to 7 days in presence of enzalutamide by MTS assay; assay type: functional, cell-based; conditions: dose 6.25-100 µM, time 6-7 day
[3] = system: CWR22R; test: Induction of apoptosis in human 22Rv1 cells at 1 uM incubated for 5 days by Annexin V-FITC/PI staining based flow cytometric analysis (reference value: 8.97 %); assay type: functional; conditions: time 5 day
[4] = Toxicity in BALB/c mouse xenografted with human 22Rv1 cells assessed as liver morphological change at 80 mg/kg,ip administrated daily for 31 days; assay type: organism-based, CWR22R; conditions: in vivo, 744 h, time 31 day
[5] = Toxicity in BALB/c mouse xenografted with human 22Rv1 cells assessed as kidney morphological change at 80 mg/kg,ip administrated daily for 31 days; assay type: organism-based, CWR22R; conditions: in vivo, 744 h, time 31 day
[6] = target: T1, Histone-lysine N-methyltransferase EZH1 (Homo sapiens, UniProt Q92800); test: Inhibition of EZH1 (unknown origin)
T1 sequence (Q92800 whole entry): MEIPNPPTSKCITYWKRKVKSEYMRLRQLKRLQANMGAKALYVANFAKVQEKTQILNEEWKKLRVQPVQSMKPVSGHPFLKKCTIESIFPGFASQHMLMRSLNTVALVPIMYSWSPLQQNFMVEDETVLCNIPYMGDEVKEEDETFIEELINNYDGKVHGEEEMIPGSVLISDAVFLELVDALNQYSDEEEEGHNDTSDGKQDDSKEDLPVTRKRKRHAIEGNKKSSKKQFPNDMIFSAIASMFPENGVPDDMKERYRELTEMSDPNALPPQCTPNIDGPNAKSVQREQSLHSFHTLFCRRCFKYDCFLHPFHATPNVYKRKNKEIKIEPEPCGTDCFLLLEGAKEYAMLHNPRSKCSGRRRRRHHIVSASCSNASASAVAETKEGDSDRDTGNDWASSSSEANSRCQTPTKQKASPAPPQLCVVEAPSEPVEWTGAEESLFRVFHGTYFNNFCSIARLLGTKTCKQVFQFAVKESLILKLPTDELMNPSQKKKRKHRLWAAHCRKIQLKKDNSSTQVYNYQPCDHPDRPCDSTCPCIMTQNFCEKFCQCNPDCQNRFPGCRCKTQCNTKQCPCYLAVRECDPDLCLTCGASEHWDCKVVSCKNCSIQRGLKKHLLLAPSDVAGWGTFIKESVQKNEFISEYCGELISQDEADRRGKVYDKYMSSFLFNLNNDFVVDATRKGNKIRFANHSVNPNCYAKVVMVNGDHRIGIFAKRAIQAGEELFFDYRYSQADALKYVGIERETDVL

[7] = system: BT-549; test: Antiproliferative activity against human BT-549 cells assessed as inhibition of cell growth incubated for 6 to 7 days by MTS assay; assay type: functional, cell-based; conditions: time 6-7 day
[8] = system: CWR22R; test: Antitumor activity against human 22Rv1 cells xenografted in BALB/c mouse assessed as tumor growth inhibition at 80 mg/kg,ip administrated daily for 31 days relative to control; assay type: functional; conditions: 22Rv1, 744 h, time 31 day, read-out: TGI
[9] = system: PC-3; test: Antiproliferative activity against human PC-3 cells assessed as inhibition of cell growth incubated for 6 to 7 days by MTS assay; assay type: functional, cell-based; conditions: time 6-7 day
[10] = system: BEAS-2B; test: Cytotoxicity against human BEAS-2B cells incubated for 6 to 7 days by MTS assay; assay type: toxicity, cell-based; conditions: time 6-7 day
[11] = Toxicity in BALB/c mouse xenografted with human 22Rv1 cells assessed as change in body weight at 80 mg/kg,ip administrated daily for 31 days; assay type: organism-based, CWR22R; conditions: in vivo, 744 h, time 31 day
[12] = system: CWR22R; test: Antimigratory activity in human 22Rv1 cells assessed as downregulation of N-cadherin expression at 3 to 10 uM incubated for 48 hrs by Western blotting analysis; assay type: functional, cell-based; conditions: dose 3-10 µM
[13] = Inhibition of LSD2 (unknown origin); design: species or system Homo sapiens
[14] = target: T2, Amine oxidase [flavin-containing] A (Homo sapiens, UniProt P21397); test: Inhibition of MAO-A (unknown origin)
T2 sequence (P21397 whole entry): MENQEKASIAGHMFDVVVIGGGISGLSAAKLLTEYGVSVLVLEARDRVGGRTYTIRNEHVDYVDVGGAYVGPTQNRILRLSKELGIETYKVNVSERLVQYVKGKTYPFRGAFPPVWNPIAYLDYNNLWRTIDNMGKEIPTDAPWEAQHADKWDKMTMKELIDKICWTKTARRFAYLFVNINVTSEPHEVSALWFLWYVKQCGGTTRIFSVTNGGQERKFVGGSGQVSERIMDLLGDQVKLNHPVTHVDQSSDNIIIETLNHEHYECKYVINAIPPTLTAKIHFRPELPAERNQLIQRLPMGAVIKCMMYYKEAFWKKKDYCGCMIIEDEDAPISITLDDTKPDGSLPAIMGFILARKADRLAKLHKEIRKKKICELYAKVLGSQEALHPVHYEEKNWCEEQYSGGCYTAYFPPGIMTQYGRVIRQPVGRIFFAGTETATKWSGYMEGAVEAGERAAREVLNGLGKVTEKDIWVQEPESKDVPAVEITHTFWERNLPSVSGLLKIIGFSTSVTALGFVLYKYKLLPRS

IC50 [6]: 2.16 µM | IC50 [13]: 16.6 µM | IC50 [14]: 1.54 µM
SMILES: CCN(c1cc(-c2ccc([C@@H]3C[C@H]3N(CC3CCOCC3)C(=O)OC(C)(C)C)cc2)cc(C(=O)NCc2c(C)cc(C)[nH]c2=O)c1C)C1CCOCC1 (racemic)
Activity [1]: Active | Activity [2]: Active | Activity [3]: 17.71% | Activity [4]: Non-Toxic | Activity [5]: Non-Toxic | Activity [7]: Active | inhibition in vivo at 80 mg/kg [8]: 52.2% | Activity [9]: Active | Activity [10]: Non-Toxic | Activity [11]: Non-Toxic | Activity [12]: Active
